The results in this text go back to ChEMBL document CHEMBL1201862, “PubChem BioAssay data set” (2004).

Among the test systems are HT-29; SNB-75; HCT-15; OVCAR-3; K562; NCI-H522; ACHN; SK-OV-3; OVCAR-8; M14; NCI-H460; RPMI-8226; CAKI-1; SF-539; EKVX; SK-MEL-28; LOX IMVI.
Holding throughout (assay): NCI tumour cell line growth inhibition, 48 h

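Protocol summary: plate cells (96-well), add compound at 5 concentrations, incubate 48 h, interpolate endpoints linearly. The concentration for 50% growth inhibition is given as GI50.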 Calls of active or inactive are those of the source. Rule as the data show it: active = GI50 up to about 1.1 µM and inactive = higher.

For the compound `CCCN(CCC)C(=O)c1nc(N)nc(-c2ccc(OC)cc2)c1-c1ccc(OC)cc1`, the GI50 with HT-29 was > 100 µM (inactive); in the test on SNB-75, 37.5 µM (inactive); with HCT-15, over 100 µM; in the test with OVCAR-3 it was > 100 µM (inactive); in the test on K562 it was 84.1 µM (inactive); in the test on NCI-H522, 98.9 µM (inactive). Moreover, the GI50 in the test with ACHN was > 100 µM (inactive); in the test with SK-OV-3, > 100 µM (inactive); with OVCAR-8, > 100 µM (inactive); in the test with M14 it was > 100 µM (inactive); in the test on NCI-H460, > 100 µM (inactive); in the test on RPMI-8226, 29 µM (inactive). The GI50 with CAKI-1, in the test with SF-539, in the test with EKVX and in the test with SK-MEL-28 was > 100 µM (inactive) throughout.

On to `O=C1[C@H]2ON(c3ccccc3)C(c3ccco3)[C@H]2C(=O)N1c1ccc(Cc2ccc(N3C(=O)[C@@H]4ON(c5ccccc5)C(c5ccco5)[C@@H]4C3=O)cc2)cc1` (stereo not given in full), for which the GI50 with HT-29 is > 100 µM (inactive); with SNB-75, > 100 µM (inactive); in the test on LOX IMVI, > 100 µM (inactive); in the test on HCT-15, over 100 µM; with OVCAR-3, > 100 µM (inactive); with K562, > 100 µM (inactive). The GI50 with ACHN was > 100 µM (inactive); in the test with SK-OV-3, > 100 µM (inactive); in the test on M14 it was 82.2 µM (inactive); with NCI-H460 it was > 100 µM (inactive); with RPMI-8226, > 100 µM (inactive); in the test with CAKI-1, > 100 µM (inactive). Moreover, the GI50 with SF-539 and with SK-MEL-28 was > 100 µM (inactive) in each case.

With `COc1cc(-c2cc(-c3cc([N+](=O)[O-])c(/C=N/NC(=O)c4ccncc4)o3)ccc2OC)ccc1C`, the GI50 in the test on HT-29, with SNB-75, in the test on LOX IMVI, in the test with OVCAR-3, with K562 and in the test on NCI-H522 was > 100 µM (inactive) throughout. Besides, the GI50 in the test on ACHN, in the test with SK-OV-3, with M14, in the test on RPMI-8226, in the test on CAKI-1 and in the test with SF-539 was > 100 µM (inactive) throughout. Further, the GI50 in the test with EKVX and in the test with SK-MEL-28 was > 100 µM (inactive) each time.

Regarding `CC(=O)Nc1ccc(S(=O)(=O)N/N=C/c2cc(I)cc([N+](=O)[O-])c2O)cc1`, the GI50 in the test with HT-29 is > 100 µM (inactive); in the test on SNB-75, 25.6 µM (inactive); with LOX IMVI it was 80.9 µM (inactive); in the test with HCT-15, 75.5 µM; with OVCAR-3, > 100 µM (inactive); with K562 it was 57.3 µM (inactive). Further, the GI50 in the test on ACHN is > 100 µM (inactive); with SK-OV-3 it was 85.3 µM (inactive); in the test on OVCAR-8, > 100 µM (inactive); in the test on M14, 46.6 µM (inactive); in the test with NCI-H460 it was > 100 µM (inactive); in the test on RPMI-8226, 36.6 µM (inactive). In addition, the GI50 in the test with CAKI-1 was 81.5 µM (inactive); in the test on EKVX it was 60.5 µM (inactive); with SK-MEL-28 it was 25.2 µM (inactive).

As to `c1ccc(P(=C2c3ccccc3-c3ccccc32)(c2ccccc2)c2ccccc2)cc1`, the GI50 with HT-29 was 2.99 µM (inactive); in the test on SNB-75 it was 28.1 µM (inactive); with LOX IMVI, 2.83 µM (inactive); with HCT-15 it was 5.02 µM; in the test with OVCAR-3, 2.53 µM (inactive); in the test on K562, 2.1 µM (inactive). Also, the GI50 in the test on NCI-H522 is 1.6 µM (inactive); with ACHN it was 2.66 µM (inactive); with SK-OV-3, 20.7 µM (inactive); with OVCAR-8, 3.04 µM (inactive); in the test with M14 it was 8.34 µM (inactive); with NCI-H460 it was 3.37 µM (inactive). The GI50 is 6.41 µM (inactive) with CAKI-1, 11.5 µM (inactive) in the test with SF-539, 5.58 µM (inactive) in the test with EKVX and 6.5 µM (inactive) in the test with SK-MEL-28.
